# Experimental data taken from paper PMC5817723, “^99mTc-HYNIC-(tricine/EDDA)-FROP peptide for MCF-7 breast tumor targeting and imaging” (Journal of Biomedical Science, 2018).
# Residues, ends and D or L forms follow the SMILES beside them. *: point of attachment. HYNIC = NNc1ccc(C(=O)*)cn1
# Legend:
# [1] = In vitro stability in normal saline at room temperature; assay type: physicochemical; details: TLC, n = 3
# Protocol: The radiochemical purity was determined by instant thin layer chromatography (ITLC) in different mobile phases such as methyl ethyl ketone (MEK), acetonitrile/water (50/50) and citrate solvent (0.1 M, pH 5.2) using a Lablogic mini scan TLC scanner (Sheffield, UK) and Laura image analysis software. In MEK, free ^99mTcO4^− migrated with the solvent front, while radiolabeled peptide remained at the application point. In the acetonitrile/water system, the colloids remained at the application point, while radiolabeled peptide migrated in front of solvent. The amount of labeled co-ligand was determined by citrate solvent, that free ^99mTcO4 Na and labeled co-ligand migrate in front of solvent while both RHT and labeled peptide (^99mTc-FROP) remind at the origin. A NaI (Tl) gamma detector (Delshid, Tehran, Iran) was used to for measurement of radioactivity.
# (§1) The stability of ^99mTc-HYNIC-FROP in normal saline was evaluated using ITLC at various times (2, 4, 6 and 24 h) at room temperature. For serum stability, ^99mTc-HYNIC-FROP (30 μL) was incubated with freshly human plasma serum (90 μL) in triplicate at 37 °C. At 1 h of incubation, the plasma proteins were precipitated with a mixture of acetonitrile/ethanol (1:1 v/v) and centrifugation. The supernatant layer was filtered through a 0.22 μm filter and then the fraction was analyzed by RP-HPLC. Partition coefficient of ^99mTc-HYNIC-FROP was determined via method that previously was described.
# [2] = Partition coefficient between n-octanol and PBS; assay type: physicochemical; details: distribution between n-octanol and PBS; method of ref 22; mean ± SD; read-out: Log p (partition coefficient)
# Protocol: as §1
# [3] = tested on: MCF-7, A-549 SKOV-3, PC-3, T47D and HFFF2 cell lines; assay: Cellular uptake on different cell lines; assay type: cell-based, human; details: 40 nM, 37 °C, 1 h
# Protocol: The cellular uptake studies of ^99mTc-HYNIC-(tricine/EDDA)-FROP were performed on MCF-7, A-549 SKOV-3, PC-3, T47D and HFFF2 cell lines. The cells (5 × 10^5) were seeded in 12-well plates overnight and incubated with ^99mTc-HYNIC-FROP (40 nM) at 37 °C for 1 h. Incubation of the samples was terminated by removing medium and washing with cold serum-free medium. Thereafter, the cells were detached by trypsin and the radioactivity in the cell suspension was quantified.
# [4] = tested on: MCF-7 cells; assay: Internalization study in MCF-7 cells; assay type: cell-based, human; details: MCF-7, 40 nM, acid wash urea buffer pH 2.5
# Protocol: For internalization experiment, MCF-7 cells (1 × 10^6 cells) were seeded on the single plates and incubated with ^99mTc-HYNIC-FROP (40 nM) at 4 °C. After 1 h incubation, medium was removed and cells were washed with ice-cold serum free medium. Then 1 mL complete medium was added to each dish and cells were further incubated for 0.5, 1, 2, 6 and 24 h at 37 °C. After incubation, medium was removed from cellular plate and then was washed once with cold serum free medium. Then supernatant was collected, and for removing radioactivity bound to the surface of the cells, the acid wash with urea buffer (pH 2.5) was used. The internalized radiolabeled peptide was recovered by solubilizing the cells with 1 M NaOH at 37 °C for 5 min, and the surface-bound (acid-wash) and internalized (acid-resistant) radioactivity were measured with the gamma counter.
# [5] = tested on: MCF-7 cells; assay: Saturation binding assay on MCF-7 cells; design: species or system human; details: saturation 30–250 nM, 30 min, nonlinear regression
# Protocol: The cell-binding affinity of ^99mTc-HYNIC-FROP was assessed with saturation method. For determining of […] (Kd) and total number of binding sites (Bmax), ^99mTc-HYNIC-FROP was prepared in high radiochemical purity. MCF-7 cells were seeded into 24-well plates and incubated overnight. Then cells were incubated with various concentrations of radiolabeled peptide (30–250 nM) for 30 min. One dish was added blocking solution containing of 500-fold excess of highest concentration of ^99mTc-HYNIC-FROP. The cells were then washed with cold serum free medium to remove free radioactivity. The cells with bound radioactivity detached with trypsin and collected and radioactivity was measured. The (Kd) and (Bmax) value were calculated using Graphpad prism software based on specific binding of ^99mTc-HYNIC-FROP on MCF-7 cells.
# [6] = tested on: MCF-7 tumor bearing mouse; assay: Planar gamma camera tumor imaging; assay type: in vivo; details: MCF-7 xenograft nude mouse, i.v., 15 min p.i.
# Protocol: For gamma camera imaging, MCF-7 tumor bearing mouse was intravenously injected through the tail with ^99mTc-HYNIC-FROP. After 15 min p.i. the mouse immediately was anesthetized using ketamine/xylazine and whole-body dynamic imaging was conducted. The imaging was performed at the department of radiology at Mazandaran Hospital by a dual-head e.cam gamma camera (Siemens Medical Systems, Inc.), equipped with a low-energy, high-resolution collimator. The evaluation of the image was performed using an e-soft (Siemens Medical Systems).
# [7] = 5 × 10^5 cells, cell-associated radioactivity
# [8] = listed as 99mTc-HYNIC-(tricine/EDDA)-FROP
compound,measurement,setting,value
"CSCC[C@H](NC(=O)[C@H](CC(C)C)NC(=O)[C@H](CCC(=O)O)NC(=O)[C@H](Cc1ccc(O)cc1)NC(=O)[C@H](CC(=O)O)NC(=O)[C@@H](N)CCC(=O)O)C(=O)N[C@@H](CC(=O)O)C(=O)N[C@@H](CC(C)C)C(=O)N[C@@H](CC(C)C)C(=O)N[C@@H](C)C(=O)N[C@@H](Cc1ccc(O)cc1)C(=O)N[C@@H](CC(C)C)C(=O)N[C@@H](CCCCNC(=O)c1ccc(NN)nc1)C(=O)O [^99mTc-HYNIC-FROP, metal not drawn] (H-EDYELMDLLAYLK(HYNIC)-OH)",%RCP in normal saline,[1]; 2 h,99.5 ± 0.4%
same,%RCP in normal saline,[1]; 4 h,99.1 ± 0.9%
same,%RCP in normal saline,[1]; 6 h,99 ± 0.8%
same,%RCP in normal saline,[1]; 24 h,94.6 ± 2.7%
same,logD,[2],-2.03 ± 0.03
same,MCF-7/A-549 ratio of uptake,[3]; [7],8.2
same,MCF-7/PC-3 ratio of uptake,[3]; [7],2.3
same,MCF-7/SKOV-3 ratio of uptake,[3]; [7],8.8
same,MCF-7/T47D ratio of uptake,[3]; [7],4.5
same,MCF-7/HFFF2 ratio of uptake,[3]; HFFF2 = normal human fibroblast,9.7
same,"internalized radiolabeled peptide, % of the total radioactivity in the cells",[4]; 1 h at 4 °C then 30 min at 37 °C,10.6 ± 0.8%
same,"internalized radiolabeled peptide, % of the total radioactivity in the cells",[4]; 1 h at 4 °C then 6 h at 37 °C,18.3 ± 2.3%
same,Bmax (maximum number of binding sites),[5]; listed as 99mTc-HYNIC-(tricine-EDDA)-Lys-FROP,4.5 ± 0.6 × 10^7 CPM/pMol
same,Bmax (maximum number of binding sites),[5]; [8],(4.5±0.6)·10^7 CPM/pMol
same,tumor visualization by planar gamma imaging,[6],tumor was clearly visualized
same,tumor visualization by planar gamma imaging,[6]; [8],tumor was clearly visible
